Experimental data published in patent publication US12427157B2, “Methods for treatment of diseases involving acidic or hypoxic diseased tissues” (Cybrexa 1, Inc., priority 2018, dated 2025).

Experiments:
PARP [1] = target: T1, PARP (Homo sapiens, UniProt P09874); assay: Enzymatic Assay 1: HT F Homogeneous PARP Inhibition Assay of cleaved compounds; assay type: biochemical; set-up: purchased Trevigen #4690-096-K (Assay 1); #4676-096-K (Assay 2)
PARP [2] = target: T1, PARP; assay: Enzymatic Assay 2: HT Universal Chemiluminescent PARP Assay of cleaved compounds;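 also: PARP reaction with activated DNA run 1 h at room temperature, product detected via streptavidin-HRP and luminescence endpoint reading on a plate reader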
DLD-1 BRCA2−/− cells = assay: Growth delay assay; assay type: cell-based, Human; settings: pH 7.4, BRCA (−/−) DLD-1, 96 h
Experimental: Cells were plated in 96 well black walled-clear bottom plates (Griener), DLD-1 WT cells at 2500 cells per well, DLD-1 BRCA2−/− at 5000 cells per well, in growth media containing 10% FBS. Cells were allowed to adhere at room temperature for 60 minutes before returning to a 37 C, 5% CO2 incubator. After 24 hours, media was removed and replaced with fresh growth media containing various drug concentrations. Each drug concentration was added in triplicate. Non-drug treated controls contained growth media only. Cells were returned to the incubator. Ninety-six hours after addition of drug, cells were fixed with 4% paraformaldehyde for 20 minutes and stained with Hoechst at 1 ug/mL. The plates were imaged on a Cytation 5 auto imager (BioTek) and cells were counted using CellProfiler (http://cellprofiler.org). The percent cell growth delay was calculated and data plotted using GraphPad Prism.

[3] = read-out: IC50 Enzymatic Assay 2, Examples cleaved per Example A (crude cleavage solution), R^8H starting materials as such

T1 sequence (P09874 whole entry): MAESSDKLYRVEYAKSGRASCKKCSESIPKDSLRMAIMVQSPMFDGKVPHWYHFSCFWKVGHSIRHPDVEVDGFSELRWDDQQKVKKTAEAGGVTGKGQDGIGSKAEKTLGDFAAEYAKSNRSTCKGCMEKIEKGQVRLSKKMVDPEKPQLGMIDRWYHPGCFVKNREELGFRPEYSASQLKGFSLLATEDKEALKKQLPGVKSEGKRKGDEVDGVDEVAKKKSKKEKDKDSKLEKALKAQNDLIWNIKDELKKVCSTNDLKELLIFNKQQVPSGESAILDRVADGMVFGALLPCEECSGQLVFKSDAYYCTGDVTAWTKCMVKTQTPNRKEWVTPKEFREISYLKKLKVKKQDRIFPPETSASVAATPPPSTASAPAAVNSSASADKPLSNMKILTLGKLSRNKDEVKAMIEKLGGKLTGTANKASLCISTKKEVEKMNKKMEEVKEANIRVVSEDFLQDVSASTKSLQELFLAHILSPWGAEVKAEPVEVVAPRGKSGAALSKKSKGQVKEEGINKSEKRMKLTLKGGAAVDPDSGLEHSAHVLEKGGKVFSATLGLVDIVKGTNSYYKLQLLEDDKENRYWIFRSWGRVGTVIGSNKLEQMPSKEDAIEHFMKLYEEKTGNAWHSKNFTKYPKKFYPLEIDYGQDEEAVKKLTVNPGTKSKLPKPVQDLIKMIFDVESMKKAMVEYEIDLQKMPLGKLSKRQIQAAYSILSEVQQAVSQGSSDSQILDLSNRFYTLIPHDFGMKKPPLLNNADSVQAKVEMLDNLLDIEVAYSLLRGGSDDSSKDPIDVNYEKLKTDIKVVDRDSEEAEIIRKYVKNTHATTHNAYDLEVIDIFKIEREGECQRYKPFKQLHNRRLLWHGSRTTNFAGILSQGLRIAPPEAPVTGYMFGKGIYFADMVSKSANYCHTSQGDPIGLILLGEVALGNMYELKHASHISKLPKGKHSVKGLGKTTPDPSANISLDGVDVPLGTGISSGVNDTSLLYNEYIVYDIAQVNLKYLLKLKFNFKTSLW

SMILES | IC50 (PARP [1]; read-out: IC50 Enzymatic Assay 1; Examples cleaved per Example A (crude cleavage solution); R^8H starting materials as such; 1 uM NAD) | IC50 (PARP [2]; [3]) | IC50 (DLD-1 BRCA2−/− cells) | IC50 (PARP [1]; Examples cleaved per Example A (crude cleavage solution); R^8H starting materials as such; 1 uM NAD; read-out: IC50 Enzymatic Assay 1) | IC50 (PARP [2])
CC(C)C[C@H](NC(=O)[C@H](Cc1ccc(O)cc1)NC(=O)[C@H](C)NC(=O)[C@H](CCCNC(=N)N)NC(=O)[C@H](Cc1c[nH]c2ccccc12)NC(=O)[C@@H]1CCCN1C(=O)[C@H](CC(N)=O)NC(=O)[C@H](CCC(N)=O)NC(=O)[C@H](CC(=O)O)NC(=O)[C@H](CC(=O)O)NC(=O)[C@H](C)N)C(=O)N[C@@H](CC(=O)O)C(=O)N[C@@H](CC(C)C)C(=O)N[C@@H](CC(C)C)C(=O)N[C@@H](Cc1ccccc1)C(=O)N1CCC[C@H]1C(=O)N[C@H](C(=O)N[C@@H](CC(=O)O)C(=O)N[C@H](C(=O)N[C@@H](CC(C)C)C(=O)N[C@@H](CC(C)C)C(=O)N[C@@H](CC(C)C)C(=O)N[C@@H](CC(=O)O)C(=O)N[C@@H](CC(C)C)C(=O)N[C@@H](CC(C)C)C(=O)N[C@@H](Cc1c[nH]c2ccccc12)C(=O)N[C@@H](CC(=O)O)C(=O)N[C@@H](C)C(=O)N[C@@H](CC(=O)O)C(=O)N[C@@H](CCC(=O)O)C(=O)N[C@@H](CSS[C@H](C)COC(=O)OCc1ccc(-c2nc3c(C(N)=O)cccc3[nH]2)cc1)C(=O)NCC(=O)O)[C@@H](C)O)[C@@H](C)O [Example 7] | 111 nM | 6.45 nM | – | – | –
CC(C)C[C@H](NC(=O)[C@H](Cc1ccc(O)cc1)NC(=O)[C@H](C)NC(=O)[C@H](CCCNC(=N)N)NC(=O)[C@H](Cc1c[nH]c2ccccc12)NC(=O)[C@@H]1CCCN1C(=O)[C@H](CC(N)=O)NC(=O)[C@H](CCC(N)=O)NC(=O)[C@H](CC(=O)O)NC(=O)[C@H](CC(=O)O)NC(=O)[C@H](C)N)C(=O)N[C@@H](CC(=O)O)C(=O)N[C@@H](CC(C)C)C(=O)N[C@@H](CC(C)C)C(=O)N[C@@H](Cc1ccccc1)C(=O)N1CCC[C@H]1C(=O)N[C@H](C(=O)N[C@@H](CC(=O)O)C(=O)N[C@H](C(=O)N[C@@H](CC(C)C)C(=O)N[C@@H](CC(C)C)C(=O)N[C@@H](CC(C)C)C(=O)N[C@@H](CC(=O)O)C(=O)N[C@@H](CC(C)C)C(=O)N[C@@H](CC(C)C)C(=O)N[C@@H](Cc1c[nH]c2ccccc12)C(=O)N[C@@H](CC(=O)O)C(=O)N[C@@H](C)C(=O)N[C@@H](CC(=O)O)C(=O)N[C@@H](CCC(=O)O)C(=O)N[C@@H](CSS[C@H](C)COC(=O)NCN1c2cc(F)cc3c(=O)[nH]nc(c23)[C@H](c2ncnn2C)[C@H]1c1ccc(F)cc1)C(=O)NCC(=O)O)[C@@H](C)O)[C@@H](C)O [Example 41] | – | 1.9 nM | 43 nM | – | –
CC(C)C[C@H](NC(=O)[C@H](Cc1ccc(O)cc1)NC(=O)[C@H](C)NC(=O)[C@H](CCCNC(=N)N)NC(=O)[C@H](Cc1c[nH]c2ccccc12)NC(=O)[C@@H]1CCCN1C(=O)[C@H](CC(N)=O)NC(=O)[C@H](CCC(N)=O)NC(=O)[C@H](CC(=O)O)NC(=O)[C@H](CC(=O)O)NC(=O)[C@H](C)N)C(=O)N[C@@H](CC(=O)O)C(=O)N[C@@H](CC(C)C)C(=O)N[C@@H](CC(C)C)C(=O)N[C@@H](Cc1ccccc1)C(=O)N1CCC[C@H]1C(=O)N[C@H](C(=O)N[C@@H](CC(=O)O)C(=O)N[C@H](C(=O)N[C@@H](CC(C)C)C(=O)N[C@@H](CC(C)C)C(=O)N[C@@H](CC(C)C)C(=O)N[C@@H](CC(=O)O)C(=O)N[C@@H](CC(C)C)C(=O)N[C@@H](CC(C)C)C(=O)N[C@@H](Cc1c[nH]c2ccccc12)C(=O)N[C@@H](CSS[C@@H](C)COC(=O)NCN1c2cc(F)cc3c(=O)[nH]nc(c23)[C@H](c2ncnn2C)[C@H]1c1ccc(F)cc1)C(=O)NCC(=O)O)[C@@H](C)O)[C@@H](C)O [Example 42] | – | 1.4 nM | 53 nM | – | –
NC(=O)c1cccc2[nH]c(-c3ccc(CO)cc3)nc12 [R^8H-1, 2-[4-(hydroxymethyl)phenyl]-1H-benzimidazole-4-carboxamide, reference compound] | – | – | – | 96.8 nM | 6.4 nM
